Data as given in the NIST ThermoML archive (doi:10.1016/j.fluid.2017.04.007).
± gives the expanded uncertainty stated by the source.

Experiments:
[1] = Crystal; DTA
[2] = Molar enthalpy of transition or fusion; details: Crystal; DSC
[3] = xn = mol fraction of the nth substance listed; details: 101 kPa, Liquid, Vibrating tube method

C[N+](C)(C)C.[Cl-] [tetramethylammonium chloride]
Details	Normal melting temperature [°C]
[1]	339.72 ± 12

CCCCCCCCCCCC(=O)O [dodecanoic acid]
Details	Molar enthalpy of transition or fusion [kcal/mol]	Normal melting temperature [°C]
[1]	–	44.33 ± 0.66
[2]	9.04 ± 0.201	–

CCCCCCCCCCCCCCCC(=O)O [hexadecanoic acid]
Details	Molar enthalpy of transition or fusion [kcal/mol]	Normal melting temperature [°C]
[1]	–	63.69 ± 0.53
[2]	12.2 ± 0.263	–

CC[N+](CC)(CC)CC.[Cl-] [tetraethylammonium chloride] + O
mass density [kg/m3], [3]
Details	298.15 K	308.15 K	318.15 K	328.15 K	338.15 K	348.15 K	358.15 K
x1 = 0.0173	1000.2 ± 0.1	996.7 ± 0.1	992.3 ± 0.1	–	–	–	–
x1 = 0.0403	1005.7 ± 0.1	1001.1 ± 0.1	996.5 ± 0.1	990.9 ± 0.1	982.8 ± 0.1	971.4 ± 0.1	953.1 ± 0.2
x1 = 0.0727	1014.9 ± 0.1	1009.5 ± 0.1	1003.9 ± 0.1	998.3 ± 0.1	992.2 ± 0.1	985.7 ± 0.1	977.1 ± 0.1
x1 = 0.1213	1027 ± 0.1	1020.8 ± 0.1	1014.4 ± 0.1	1008 ± 0.1	1001.5 ± 0.1	995.1 ± 0.1	988.4 ± 0.1
x1 = 0.1994	1035.4 ± 0.2	1029.1 ± 0.2	1022.8 ± 0.2	1016.4 ± 0.2	1010 ± 0.1	1003.4 ± 0.1	997.2 ± 0.1

CC[N+](CC)(CC)CC.[Cl-] [tetraethylammonium chloride]
Details	Molar enthalpy of transition or fusion [kcal/mol]	Normal melting temperature [°C]
[1]	–	253.63 ± 2.1
[2]	12.2 ± 0.263	–

CCCCCCCCCCCCCC(=O)O [tetradecanoic acid]
Details	Molar enthalpy of transition or fusion [kcal/mol]	Normal melting temperature [°C]
[1]	–	53.88 ± 0.39
[2]	9.87 ± 0.263	–

CCCCCCCCCCCCCCCCCC(=O)O [octadecanoic acid]
Details	Molar enthalpy of transition or fusion [kcal/mol]	Normal melting temperature [°C]
[1]	–	70.52 ± 0.45
[2]	14.7 ± 0.335	–

C[N+](C)(C)C.[Cl-] [tetramethylammonium chloride] + O
mass density [kg/m3], [3]
Details	298.15 K	308.15 K	318.15 K	328.15 K	338.15 K	348.15 K	358.15 K
x1 = 0.026	1001.5 ± 0.1	998.1 ± 0.1	–	–	–	–	–
x1 = 0.06	1005.7 ± 0.1	1001.7 ± 0.1	997.5 ± 0.1	991.3 ± 0.1	985.1 ± 0.1	975.6 ± 0.1	959.5 ± 0.1
x1 = 0.1062	1012.8 ± 0.1	1008.6 ± 0.1	1004.1 ± 0.1	999.5 ± 0.1	993.1 ± 0.1	986.6 ± 0.1	977.1 ± 0.2
x1 = 0.1731	1022.5 ± 0.2	1018.1 ± 0.2	1013.5 ± 0.2	1008.9 ± 0.2	1004 ± 0.2	998.9 ± 0.2	993 ± 0.2
x1 = 0.2831	1034.1 ± 0.3	1029.5 ± 0.3	1025 ± 0.3	1020.3 ± 0.3	1015.7 ± 0.2	1010.9 ± 0.2	1006.1 ± 0.2

CCCCCCCCCC(=O)O [decanoic acid]
Details	Molar enthalpy of transition or fusion [kcal/mol]	Normal melting temperature [°C]
[1]	–	31.60 ± 0.41
[2]	6.57 ± 0.621	–
